Earlier results, collected in US20160326157A1, “MONOBACTAMS AND METHODS OF THEIR SYNTHESIS AND USE” (PRESIDENT AND FELLOWS OF HARVARD COLLEGE, priority 2014, published 2016).

How the values were obtained:
[1] = test system: Gram-positive or anaerobic bacteria
[2] = in vivo

SMILES: C[C@H]1[C@H](NC(=O)/C(=N\OC(C)(C)C(=O)O)c2csc(N)n2)C(=O)N1S(=O)(=O)O [Aztreonam]
- concentration inhibiting most Enterobacteriaceae (Enterobacteriaceae): less than 0.5 g/mL
- activity against Gram-positive or anaerobic bacteria [1]: inactive
- absorption from the gastrointestinal tract [2]: not absorbed
- route of excretion [2]: renally excreted
